Values after ≈ are worked out from the molar mass of the structure shown.
Key:
Lepomis macrochirus = details: acute; duration: 96 hours; mortality
Aleochara bilineata = details: chronic/long-term; duration: 28 days; reproduction
Canidae = details: oral, gavage, Dog Other
Anas platyrhynchos = details: short-term; oral; feed; mortality
Colinus virginianus = details: acute; oral; mortality
Oncorhynchus mykiss = details: acute; duration: 96 hours; mortality

| SMILES | LC50 (Lepomis macrochirus) [µg/mL] | LEL (Aleochara bilineata) [g/ha] | NOAEL (Canidae; chronic, duration: 1 years, M/F, hematological) [mg/kg-day] | LC50 (Anas platyrhynchos) [mg/kg-day] | NOAEL (Rattus norvegicus; developmental, F, development) [mg/kg-day] | LD50 (Colinus virginianus) [mg/kg-day] | LC50 (Oncorhynchus mykiss) [µg/mL] | NOAEL (Canidae; subchronic, duration: 90 days, body weight) [mg/kg-day] | LD50 (Rattus norvegicus; acute, mortality) [mg/kg-day] | NOAEL (Rattus norvegicus; chronic, duration: 2 years, oral, drinking water, hematological) [mg/kg-day] | NOAEL (Rattus norvegicus; repeat dose other, oral, gavage, body weight) [mg/kg-day] |
| --- | --- | --- | --- | --- | --- | --- | --- | --- | --- | --- | --- |
| CNC(=S)[S-].[Na+] [Metam-sodium] | > 0.175 | 608000 | 0.1 | > 324 | 10 | 211 |  |  |  |  |  |
| CN=C=S [Methyl isothiocyanate] |  |  |  | > 183 |  | 119 | 0.0531 (≈ 0.726 µM) | 0.4 | 147 | 0.44 | 3 |

— EPA's ToxValDB 9.5 (doi:10.2903/j.efsa.2011.2334)
